Results reported in patent EP0449955B1, “SYNTHETIC HIV-LIKE PEPTIDES, THEIR COMPOSITIONS AND USES” (CLARITY TECHNOLOGIES INCORPORATED, priority 1988, dated 1996).
Entries after “also recorded” stand apart in the source; their conditions may differ.

Experiments:
antibodies to HIV-1 [1] = assay: EIA of HIV-1 gp41 peptide-protein conjugates against serum pools; type: binding, human; settings: peptide conjugated via C-terminus to BSA (SMCC), coated at 10 micrograms peptide/ml; 1:101 dilution of HIV+ serum pool; Figure 1
Protocol: (§1) The free peptides or peptide-protein conjugates of Figures 1-13 were initially screened for immunoreactivity by coating each well of polystyrene microtiter EIA plates (Costar, Cambridge, Massachusetts, U.S.A.) with 0.2 ml amounts of concentrations of 5-50 micrograms/ml peptide in Tris buffer, 10 mM, pH 8.0, at 4°C overnight. Peptides or peptide-protein conjugates showing immunoreactivity by EIA were then further diluted for coating to determine the minimal concentrations required that allowed maximal immunoreactivity with antibodies to HIV, and minimal nonspecific reactivity with normal sera. The EIA tests were performed as follows: The coating solution was removed from each well and the wells were blocked at 37°C for 30 minutes with a solution of 50 mM phosphate, 100 mM NaCl, pH 7.4, 1% BSA, 0.5% gelatin. The wells were then aspirated dry with a microtiter plate washer and washed 3 times with a solution of 50 mM phosphate, 100 mM NaCl, .05% Tween 20, (trademark) pH 7.4 (PBST). A 1:101 dilution (in PBST with 1% BSA, 1% NRS) of the primate serum to be tested was then added as 0.2 ml to each washed well and the plates were incubated at 37°C for 30 minutes. The plates were then washed x 3 with PBST, and 0.2 ml amounts of a 1:2000 dilution of goat anti-human (GAH) peroxidase enzyme conjugate (Organon Teknika, Cappel, Melvern, Pennsylvania, U.S.A.) that recognized human IgG, IgA, and IgM were added to each well, and the plates were incubated for 30 minutes at 37°C. The plates were then washed x 3 with PBST and incubated with 0.2 ml/well substrate consisting of 0,1M citric acid pH 5.2, 0.1 mg/ml o-phenylene diamine, 0.01% H₂O₂, at room temperature in the dark for 10 minutes. Reactions were stopped with 50 microliters of 4N H₂SO₄, and the color development was quantitated in a Multiscan plate reader at A₄₉₂. In each series of experiments positive and negative controls were included, and all tests were done in duplicate or quadruplicate. Most peptides and peptide conjugates were initially screened against a 1:101 dilution of pools of HIV positive or HIV negative sera, and the same serum pool was used to allow quantitative comparison of immunoreactivity of different free peptides or peptide-protein conjugates.
The peptides in Figures 1 and 5 were synthesized as described in Example 1 and conjugated to KLH or BSA as described in Example 2. These peptide-protein conjugates were coated to polystyrene microtiter plates all at a concentration 10 micrograms peptide/ml and evaluated for immunoreactivity as described in Example 3, using a 1:101 dilution of a pool of sera (HIV+/SIV+, respectively) containing antibodies to HIV-1 (Figure 1) or to HIV-2 (Figure 5), as well as pooled serum (HIV-/SIV-, respectively) containing no antibodies to HIV-1 or HIV-2. […] Since sera from patients infected with HIV-2 are relatively unavailable in the United States, the immunoreactivity of HIV-2 synthetic peptides was assessed using serum from macaques infected with SIV, obtained from the University of Washington Primate Center, Seattle, Washington, U.S.A. The AA sequence of SIV is nearly identical to HIV-2 in the region of the peptides synthesized (see Myers et al., Human Retroviruses and AIDS, 1988. A compilation of nucleic acid and amino acid sequences. Los Alamos National Laboratory, Los Alamos, New Mexico, 87545, USA).

antibodies to HIV-1 [2] = assay: Rapid test with peptide-BSA-colloidal gold conjugate; type: binding, human
Protocol: (§2) A test device for performing rapid tests in less than 15 minutes was prepared as illustrated in Figures 14 and 15. Referring to Figures 14 and 15, the device comprises a plastic slide 10 (approximately 1 inch wide by 3/16 inch thick by 3 1/4 inches long) having a plurality of funnel-like wells 12, each having a capacity of approximately 200 microliters, an upper inflow tract rim 14 diameter of approximately 9 mm and a lower outflow tract 16 diameter of approximately 2 mm. The undersurface of the outflow tract 16 is designed so as to provide a smooth even contact with a membrane filter 18 placed next to it in the apparatus. The membrane filter separates reactants passing through it by size, retaining those particles above a predetermined size, such as above 0.22 µm, or above 0.45 µm in size (depending upon the specific filter chosen), though other filters placed into the apparatus might separate by binding or affinity (i.e. nitrocellulose, glass). […]
An 8 ml quantity of peptide IWGCSGKLICTTAVPGC (A280nm∼=0.50) conjugated via its C-terminus and SMCC to BSA was dialyzed overnight against 2L of DI water at 4°C. […] The A₅₈₀ of each well was determined and the lowest values, indicating best protection, were at pH6.1>pH6.0>> other pH's. Using larger amounts of gold sol at pH6.1 the minimal amount of protective protein was determined to be 70 microliters of the dialyzed peptide-BSA (A₂₈₀ = 0.45). […]

antibodies to HIV-1 [3] = assay: EIA of peptide-carrier conjugates with individual human sera; type: binding; settings: BSA-SMCC conjugate; for immunoreactivity with positive sera: 98 sera containing antibodies to HIV-1, Figures 10B, 10C
Protocol: as §1
Figure 10A illustrates the immunoreactivity of synthetic natural peptides 2S06 and 2S09 (Figure 1) when conjugated via their C-terminal GC spacer to KLH using the heterobifunctional linker MBS. […] However, the immunoreactivity of many of the positives was low (A₄₉₂ less than 1.0), and some of the negative samples had A₄₉₂ values slightly above 0.20, resulting in minimal discrimination between negatives and positives. This poor discrimination led to a search for an improved carrier protein and/or linker.
Figure 10B illustrates the reactivity of synthetic natural peptide IWGCSGKLICTTAVPGC (2S09) when conjugated through its C-terminus to BSA via the heterobifunctional linker SMCC. […] Improvement in assay performance as compared with results of Example 5A is noted with respect to negative samples having lower A₄₉₂ values, and most positive samples having higher A₄₉₂ values. […] Because of the possibility that some of the low responsiveness might be due to antigenic differences of genetic variants in the region of this epitope, as reported for HIV isolates from Zaire (Gnann et al., Science 237:1346-1349, 1987), the natural sequence variant peptide 5S67 (Figure 3) was synthesized, chemically linked to BSA with SMCC, and tested against the same sera, plus one additional negative serum sample (Figure 10C). […] This instigated a search for unnatural sequence variants of peptide 2S09 that would retain high immunoreactivity with most sera that contained antibodies to HIV-1, and yet retain low reactivity with sera devoid of antibodies to HIV. […]

antibodies to HIV-1 [4] = assay: Rapid EIA with latex-immobilized peptide reagents, HIV-1; type: binding, human; settings: passive adsorption
Protocol: as §2
The mixture was shaken gently a room temperature for 1 hour, and then washed 3 times by centrifugation at 9,000 x g for 10 minutes, removal of supernate, and resuspension of the pellet in a 12-14 ml volume of deionized water, pH 4.5. […] It was determined that this stock solution of latex coated with peptide-BSA conjugate could be diluted 1:10-1:30 with latex diluent buffer for use in the rapid EIA described below. […]

[5] = EIA of 4S36 as free peptide or BSA conjugate on 3 polystyrene microtiter plates; type: binding, human; settings: BSA-peptide conjugate, plastic type 1; Figure 9
Description: Antigenicity of each unnatural peptide is indicated by its ability as a free peptide to inhibit binding of HIV-1 antibodies to a BSA conjugate of peptide 2S09. […] Antigenicity of each peptide is indicated by its ability as a free peptide to inhibit binding of HIV-1 antibodies to a BSA conjugate of either 2S09 or peptide 5S67, a natural sequence variant reported in HIV-1 isolates from Zaire (Gnann et al., Science 237:1346-1349, 1987; and Alizon et al., Cell 46:36, 1986). […] Antigenicity of each peptide is indicated by its ability as a free peptide to inhibit binding of SIV/HIV-2 antibodies to a BSA conjugate of peptide 2S27. […] AA variants of peptide 2S27 are highlighted. […] Different groups of peptides were initially conjugated to BSA as indicated and the conjugates of each pool were first tested. […] All peptides were utilized C-terminally conjugated to BSA. […]
The free peptides or peptide-protein conjugates of Figures 1-13 were initially screened for immunoreactivity by coating each well of polystyrene microtiter EIA plates (Costar, Cambridge, Massachusetts, U.S.A.) with 0.2 ml amounts of concentrations of 5-50 micrograms/ml peptide in Tris buffer, 10 mM, pH 8.0, at 4°C overnight. […] Reactions were stopped with 50 microliters of 4N H₂SO₄, and the color development was quantitated in a Multiscan plate reader at A₄₉₂. […]

Sequence	immunoreactivity with HIV-1 antibodies (antibodies to HIV-1 [1])	result with positive serum samples (red-purple dots) (antibodies to HIV-1 [2]; 20 sera containing antibodies to HIV-1, diluted 1:100)	result with negative sera (antibodies to HIV-1 [2]; 20 sera without antibodies to HIV-1)	immunoreactivity with positive sera (antibodies to HIV-1 [3]; 11)	performance of free peptide passively adsorbed to latex (antibodies to HIV-1 [4])	positive/negative ratios [5]	reactivity with sera that did not contain antibodies to HIV-1 (antibodies to HIV-1 [3]; 85-87 negative sera, Figures 10C, 11)	A492 values of positive samples (none less than) (antibodies to HIV-1 [3]; 98 positive samples, Figure 11)
IWGCSGKLICTTAVPGC [2S09]	maximally immunoreactive; also recorded: higher reactivity; also recorded: Significant immunoreactivity; also recorded: slightly superior immunoreactivity	19 of the 20	only the white color of the underlying membrane remained	very low immunoreactivity	–	–	–	–
VWGCSGKLICTTAVPGC [4S36]	–	–	–	striking increase in immunoreactivity of the low positives	produced an immunoreactive reagent	≥ 20	remained acceptably low	≥ 1.0
